{
  "source": "paper PMC9767416",
  "about": "“Discovery of small molecule mechanistic target of rapamycin inhibitors as anti-aging and anti-cancer therapeutics” (Frontiers in Aging Neuroscience, 2022)",
  "key": {"[1]": {"system": "glioblastoma T98, A172 and U87 cells", "experiment": "Crystal violet and resazurin assays in further glioblastoma lines", "format": "cell-based, human", "conditions": "0–100 μM, 24 h", "method": "(§1) Twenty-four hours before treatment, cells were plated in 96-well plates at densities of 2,850 cells per well for senescent RPE-1 (IR-RPE-1), 3,350 cells per well for proliferating RPE-1 and senescent BJ (DIS-BJ), and 5,000 cells per well for U373, T98, A172, U87, TMZ-U87, and proliferating BJ cells.\n(§2) For the crystal violet assay, the cells were washed twice with 150 μL PBS and stained with 30 μL 0.5% (w/v) crystal violet in 20% methanol for 15 mins. Next, the plates were washed five times with ddH2O and left to dry overnight. Crystal violet was solubilized with 75 μL 0.2% Triton X-100 (Sigma) in PBS for 15 mins. The absorbance was read at 595 nm using a microplate reader (Envision, PerkinElmer, Waltham, MA, USA). The absorbance of crystal violet in treated cells was expressed as a percentage of absorbance in untreated cells. Each condition was measured at least in triplicate.\n(§3) For the resazurin assay, 200 μL of the culture medium of each well was exchanged for 100 μL of resazurin (stock solution 30 mg/mL; Sigma, St. Louis, MO, USA) diluted 10 times in the culture medium, and the cells were incubated at 37°C for 1–3 h. Reading of fluorescence was done using a microplate reader (PerkinElmer, Waltham, MA, USA). Absolute values of fluorescence were related to the values of untreated cells. Each condition was measured at least in triplicate."}, "[2]": {"system": "IR-induced senescent RPE-1 cells", "experiment": "Crystal violet and resazurin assays in IR-induced senescent RPE-1", "format": "cell-based, human", "method": "To obtain ionizing radiation (IR)-induced senescent cells, proliferating RPE-1 cells were exposed to a single dose of X-rays (20 Gy) using Pantak HF160 (Gulmay, Surrey, UK) X-ray instrument equipped with Pantak Seifert HF320 generator, MXR-161 X-ray tube (Comet AG, Flamatt, Switzerland), and an aluminum filter using current 1–10 mA. After irradiation, the cells were cultured for an additional 7 days until the development of the senescent phenotype ([Salovska et al., 2022]). To induce docetaxel-induced senescence (DIS), BJ cells were exposed to 5 nM docetaxel for 7 days, as described previously ([Sapega et al., 2018]). To prepare temozolomide (TMZ)-induced senescence, U87 cells were exposed to 100 μM TMZ for 14 days.\nas §1, §2\nas §3, with “triplicate. […]” for “triplicate.”"}},
  "data": [
    {"smiles": "Nc1ccc(C(=O)Nc2cccc(-c3c[nH]c4ncccc34)c2)cc1O", "note": "[Compound 3, N-(3-(1H-pyrrolo[2,3-b]pyridin-3-yl)phenyl)-4-amino-3-hydroxybenzamide]", "values": [
      {"measurement": "effect in crystal violet and resazurin assays", "setting": "[1]", "value": "significantly affected"},
      {"measurement": "selectivity for senescent versus proliferating cells", "setting": "[2]; IR-RPE-1 vs proliferating RPE-1, crystal violet and resazurin", "value": "non-selective manner"},
      {"measurement": "sensitivity of senescent cells (crystal violet and resazurin)", "setting": "[2]; IR-induced senescent RPE-1, 0–100 μM, 24 h", "value": "significantly sensitive"}
    ]}
  ]
}
